We go through 1 compound from publication PMC5384001 (Scientific Reports, 2017).

For orientation: Kd means the equilibrium constant for the complex coming apart. Usually EC50 stands for the concentration that produces a half-maximal response.

One test addresses T1, GluD2-(H)GluN1 (Rattus norvegicus, UniProt Q63226, A766F/D542Y/D767R/N763E/R768S/S544G/T764L/V761T/V765F/Y543Q).
T1 construct: have an effect on the function of full-length receptors as well; expressed in transfected cells; host or cells: Xenopus laevis oocytes injected with cRNA
T1 sequence (Q63226 24-1007 D542Y/Y543Q/S544G/V761T/N763E/T764L/V765F/A766F/D767R/R768S): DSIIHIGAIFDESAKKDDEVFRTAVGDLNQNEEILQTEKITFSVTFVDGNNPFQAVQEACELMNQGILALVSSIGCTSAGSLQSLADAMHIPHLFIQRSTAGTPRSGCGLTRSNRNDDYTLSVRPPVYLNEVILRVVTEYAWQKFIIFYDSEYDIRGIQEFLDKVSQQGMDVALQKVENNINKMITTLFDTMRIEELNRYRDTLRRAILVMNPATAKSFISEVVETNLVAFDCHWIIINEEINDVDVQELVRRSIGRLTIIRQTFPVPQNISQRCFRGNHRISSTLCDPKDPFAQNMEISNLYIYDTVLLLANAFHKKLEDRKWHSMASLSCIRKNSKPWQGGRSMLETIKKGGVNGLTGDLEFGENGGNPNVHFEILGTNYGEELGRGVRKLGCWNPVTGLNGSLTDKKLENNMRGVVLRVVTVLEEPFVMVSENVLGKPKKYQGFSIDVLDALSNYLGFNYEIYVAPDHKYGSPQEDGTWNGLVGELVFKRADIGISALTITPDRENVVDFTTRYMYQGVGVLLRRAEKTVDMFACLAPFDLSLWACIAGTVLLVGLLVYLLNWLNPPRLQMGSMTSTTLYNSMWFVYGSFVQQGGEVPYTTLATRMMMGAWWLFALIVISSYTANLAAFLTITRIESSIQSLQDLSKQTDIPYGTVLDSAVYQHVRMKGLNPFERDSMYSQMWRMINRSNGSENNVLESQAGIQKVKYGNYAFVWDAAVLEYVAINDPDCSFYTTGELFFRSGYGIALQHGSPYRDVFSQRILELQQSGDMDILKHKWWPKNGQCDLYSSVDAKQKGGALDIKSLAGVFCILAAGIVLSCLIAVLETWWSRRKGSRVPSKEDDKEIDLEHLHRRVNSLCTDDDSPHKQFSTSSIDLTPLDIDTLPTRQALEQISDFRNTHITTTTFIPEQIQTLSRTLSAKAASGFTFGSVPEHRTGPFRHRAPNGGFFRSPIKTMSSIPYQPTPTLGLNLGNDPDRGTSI
The test is described as follows: Two-electrode voltage clamp in Xenopus oocytes, current response. The format is cell-based. On the procedure: (§1) Oocytes were obtained by surgically removing parts of the ovaries from Xenopus laevis (Nasco, Fort Atkinson, WI, USA) anaesthetised with 1.5 g/L 3-aminobenzoic acid ethylester (Sigma, Taufkirchen, Germany). The ovary clippings were digested with 784 U/mL (4 mg/mL) collagenase type I (Worthington, Lakewood, NJ, USA) in Ca^2+-free Barth’s solution (88 mM NaCl, 1.1 mM KCl, 2.4 mM NaHCO3, 0.8 mM MgSO4, 15 mM HEPES-NaOH, pH 7.6) with gentle agitation for 1.5–2 h at 20 °C to remove the follicular cell layer. After stopping the collagenase digestion by washing with Barth’s solution (88 mM NaCl, 1.1 mM KCl, 2.4 mM NaHCO3, 0.3 mM Ca(NO3)2, 0.4 mM CaCl2, 0.8 mM MgSO4, 15 mM HEPES-NaOH, pH 7.6), defolliculated oocytes of stages V and VI were selected and maintained at 16 °C in Barth’s solution supplemented with 100 μg/mL gentamicin, 40 μg/mL streptomycin, and 63 μg/mL penicillin. Oocytes were injected with 11 ng cRNA (10 ng of each cRNA for co-expression of GluN1 and GluN2A) using a nanoliter injector (WPI, Sarasota, FL, USA). Four days after cRNA injection, current responses were recorded under voltage clamp at –70 mV with a Turbo Tec-10CD amplifier (npi electronic, Tamm, Germany) controlled by Patchmaster software (HEKA, Lambrecht, Germany). Currents were filtered with a 20 Hz low-pass filter and then digitised with a sampling rate of 50 Hz. Recording electrodes were pulled from borosilicate glass (Hilgenberg, Malsfeld, Germany) with an L/M-3P-A vertical pipette puller (List-Medical), filled with 3 M KCl, and had resistances of 0.5–5 MΩ (voltage electrode) or 0.5–1.5 MΩ (current electrode). Recordings were performed in a 50 μL chamber under constant superfusion with extracellular solution at a flow rate of 3–5 mL/min. […] Finally, Ba-NFR and then NMDGR were applied again to check for reversibility.

Test [1] addresses T2, GluN1-1a-(H)GluD2 with GluN2A (Rattus norvegicus, UniProt P35439, E751N/F753V/F754A/G537S/L752T/Q536Y/R755D/S756R/T749V/Y535D).
T2 construct: expressed in transfected cells; host or cells: Xenopus laevis oocytes injected with cRNA
The test is described as above. The format is cell-based. As to conditions: 100 μM glutamate plus 1 mM D-serine, n = 23. On the procedure:
as §1

Another test has as its target GluN1 LBD. Also on record: method as in PMID 12805203. As to conditions: cited from earlier work.
The subject of another test is parallel fiber EPSCs. As to conditions: inhibitory effect on parallel fiber EPSCs; read-out: apparent EC50; cited from earlier work.

As for `N[C@H](CO)C(=O)O` [D-serine], the current response at GluD2-(H)GluN1 (10 μM D-serine, n = 14) came out at 1.1 ± 0.6 nA; at GluD2-(H)GluN1 (1 mM D-serine, n = 22) it was 2.3 ± 0.4 nA; in test [1] it was 5.8 ± 1.0 nA. The Kd on GluN1 LBD is 7 µM. Besides, in the test with parallel fiber EPSCs, the EC50 is 147 µM.
